# Experimental data reported in patent US20250270170A1, “2,3-DIMETHOXY-5-METHYL-1,4-BENZOQUINONE ALKYL ALCOHOL DERIVATIVE AND USE THEREOF” (BEIJING ANJIANXI BIO-MEDICAL TECHNOLOGY CO., LTD., priority 2021, published 2025).
# How the values were obtained:
# [1] = Example 10: body weight of HT-29 tumor-bearing nude mice; assay type: in vivo; conditions: HT-29 model, DDP 5 mg/kg i.p. QW × 3, R01 18 mg/kg i.g. BID × 28
# Experimental: On D1 of the assay, the HT-29 cells in the logarithmic growth phase were collected, counted and resuspended in serum-free McCoy, and the cell concentration was adjusted to 4×10^7 cells/mL. The cells were pipetted with a pipette to disperse them evenly, and the cells were put into a 50-mL centrifuge tube, which was placed in an ice box. A 1-mL syringe was used to draw the cell suspension, which was injected subcutaneously into the axilla of the front right limb of a nude mouse. Each animal was inoculated with 100 μL (4×10^6 cells/mouse) to establish a HT-29 transplanted tumor model in nude mice. After the inoculation, the animal status and tumor growth were regularly observed. On D12, the tumor diameter was measured using an electronic vernier caliper. The data were input into an Excel spreadsheet to calculate the tumor volume. Tumor-bearing mice in good health and with similar tumor volumes (103 to 179 mm^3) were selected and divided into groups using randomized block method. After the start of the assay, the tumor diameter was measured regularly, the tumor volume was calculated, and the animal body weight was also weighed and recorded.
# A549 cells [2] = test: CCK-8 cell proliferation assay, A549; assay type: cell-based; conditions: Homo sapiens
# Experimental: (1) Cells in the logarithmic growth phase were taken and digested to make a cell suspension. 20 μl of the cell suspension was taken with a pipette, and added to a CountStar disposable cell counting plate for cell counting, and the counting results were recorded. The cell concentration was adjusted to 30,000 to 40,000 cells/ml (note: different cells have different growth rates, so the number of cells in each well was slightly different).
# (2) A 96-well plate was taken. Since the wells in the outermost circle of the culture plate were easy to evaporate and dry, causing inaccurate volumes, and increasing errors, 100 μl of PBS was added to the wells in the outermost circle, which were not used as assay wells.
# (3) The adjusted cell suspension was added to the 96-well plate, with 100 μl in each well, resulting approximately 3000 to 4000 cells in each well. The plate was placed in a 37° C. incubator under the condition of 5% CO2 for cell culture, and the drug was added when the cells adhered to the wall.
# (4) Drug dilution. The concentration gradient was set as: 0 μM, 10 μM, 50 μM, 100 μM, and 200 μM, with 3 duplicates for each concentration. In addition, blank control wells containing only culture medium and drug without cells were also set.
# (5) The plate was incubated in the incubator for 24 h, 48 h and 72 h, respectively. After reaching the set time point, the 96-well plate was taken out from the incubator, and 10 μl of CCK-8 reagent was added to each well, taking care to avoid bubbles. The plate was shaked to mix evenly, and put back into the incubator to culture for another 2 hours.
# (6) To detect the absorbance, the 96-well plate was placed in a […], and the absorbance value (OD value) at 450 nm was detected. The data was recorded. Cell viability=(OD value of the assay well−OD value of the blank control well)/(OD value of the solvent control well−OD value of the blank control well)×100%.
# (7) The data was imported into GraphPad Prism5 for plotting. The IC50 values were calculated, and the curves were drawn.
# A549 cells [3] = test: Flow cytometry for cell cycle detection, A549; assay type: cell-based, human
# Experimental: (1) Cells were inoculated in a 6-well plate. When about 50% of the cells were adherent and fused, the compound of formula (I) at a concentration of 0 μM, 10 μM, 30 μM, and 90 μM were added, respectively. The plate was placed in an incubator at 37° C. with 5% CO2 to continue culturing, and three time points were set, which were 24 h, 48 h and 72 h, respectively.
# (2) After reaching the designated time point, the cell culture plate was taken out from the incubator, and placed in a biological safety cabinet. A 4 ml centrifuge tube was taken and marked. The supernatant in each well was pipetted out and added to the corresponding 4 ml centrifuge tube. The cells were gently washed with PBS, and the PBS was added to the corresponding centrifuge tube. An appropriate amount of trypsin was added to each well to digest the cells. When the cells were digested to a moderate degree, the old culture medium from the centrifuge tube was added to the corresponding well. The cells were gently pipetted with apipette to form a single-cell suspension, which was pipetted back into the original centrifuge tube. The tube was immediately centrifuged at 1500 rpm for 5 minutes. Then, the supernatant was discarded and the precipitate was retained.
# (3) 2 ml of pre-chilled PBS was added to the centrifuge tube, and centrifuged again at 1500 rpm for 5 minutes. The supernatant was discarded, and the cell debris was removed.
# (4) 1 ml of 75% ethanol was added while pipetting the cells, to make the cells appear as single as possible. Then, the cells were fixed at 4° C. overnight or stored at −20° C. for long-term storage (can be stored for 1 week).
# (5) The fixed cells were taken out, and centrifuged at 1000 rpm for 5 minutes. The ethanol was discarded, and pre-chilled PBS was added to wash the cells. Then, the cells were centrifuged at 1000 rpm for 5 min to remove the residual ethanol on the cells.
# (6) A cell cycle detection kit from Wuhan Promoter Biology Co., Ltd. was used. 100 μl of RNaseA was added, and incubated in a 37° C. water bath for 30 minutes.
# (7) 400 μl of PI was added and mixed well, and incubated at 4° C. in dark for 30 minutes.
# (8) The cell cycle was detected by upflow cytometry.
# [4] = Solubility of the compound in organic solvents; assay type: physicochemical; conditions: organic solvents (DMSO and isopropyl alcohol 3:7 selected)
# Experimental: The containers with DMSO and isopropyl alcohol were opened in a biological safety cabinet. A 15 ml centrifuge tube was taken, and 3 ml of DMSO and 7 ml of isopropyl alcohol were added to make a mixed solvent. The molecular weight of the compound of formula (I) is 678.22 g/mol. 40.69 mg of an original drug of the compound of formula (I) was weighed, and 4 ml of the mixed solvent was added. The mixture was mixed well by pipetting. […] The solution was diluted according to the required concentration when being used.
structure (smiles),measurement,setting,value
"N.N.[Cl][Pt][Cl] [DDP, cisplatin]",Mean animal body weight ± SE,[1]; D 12 (grouping),17.6 ± 0.3 g
same,Mean animal body weight ± SE,[1]; D 15,17.2 ± 0.2 g
same,body weight loss rate,[1]; D 15,(2.6%)
same,Mean animal body weight ± SE,[1]; D 19,16.9 ± 0.3 g
same,body weight loss rate,[1]; D 19,(3.9%)
same,Mean animal body weight ± SE,[1]; D 22,16.3 ± 0.3 g
same,body weight loss rate,[1]; D 22,(7.4%)
same,Mean animal body weight ± SE,[1]; D 26,15.8 ± 0.4 g
same,body weight loss rate,[1]; D 26,(10%)
same,Mean animal body weight ± SE,[1]; D 29,15.3 ± 0.3 g
same,body weight loss rate,[1]; D 29,(13%)
same,Mean animal body weight ± SE,[1]; D 33,14.8 ± 0.4 g
same,body weight loss rate,[1]; D 33,(16%)
same,Mean animal body weight ± SE,[1]; D 36,14.8 ± 0.4 g
same,body weight loss rate,[1]; D 36,(16%)
same,Mean animal body weight ± SE,[1]; D 40,14.9 ± 0.4 g
same,body weight loss rate,[1]; D 40,(15%)
COC1=C(OC)C(=O)C(CCCCCCCCCCOC(=O)Cc2c(C)n(C(=O)c3ccc(Cl)cc3)c3ccc(OC)cc23)=C(C)C1=O [compound of formula (I)],IC50,A549 cells [2]; 24 h,213.2 ± 1.22 µM
same,IC50,A549 cells [2]; 48 h,55.5 ± 1.84 µM
same,IC50,A549 cells [2]; 72 h,39.7 ± 0.98 µM
same,proportion of S phase of cells,"A549 cells [3]; 10 μM, 24 h",22.94%
same,proportion of S phase of cells,"A549 cells [3]; 10 μM, 48 h",24.73%
same,proportion of S phase of cells,"A549 cells [3]; 10 μM, 72 h",19.77%
same,proportion of S phase of cells,"A549 cells [3]; 30 μM, 24 h",12.52%
same,proportion of S phase of cells,"A549 cells [3]; 30 μM, 48 h",15.96%
same,proportion of S phase of cells,"A549 cells [3]; 30 μM, 72 h",10.63%
same,proportion of S phase of cells,"A549 cells [3]; 90 μM, 24 h",3.92%
same,proportion of S phase of cells,"A549 cells [3]; 90 μM, 48 h",4.37%
same,proportion of S phase of cells,"A549 cells [3]; 90 μM, 72 h",5.42%
same,solubility in organic solvents,[4],easily soluble
